# In patent US20230210116A1, “HONEYBEE REPELLENT” (EARTH CORPORATION, priority 2020, published 2023):
# Structures can show the parent of a compound that is named as a salt.
# System: honeybees
# Experiment: Test for Confirmation of Honeybee Repelling Effect 1, 2, 3 (feeding station with 40% sugar water)
# Type: in vivo
# Details: Test 1; 2% by weight per volume solution
# Description: The following were used as the test samples for Examples: 2% by weight per volume ethanol solutions of octane (a-1), tetradecane (a-2), heptadecane (a-3), nonadecane (a-4), 2-acetylfuran (b-1), 5-methyl-2-furaldehyde (b-2), furfural (b-3), furaneol (c-1), 2-acetylpyrrole (d-1), 1-benzylpyrrole (d-2), 1-octanol (e-1), 1-dodecanol (e-2), and 1-octadecanol (e-3), respectively; and 2% by weight per volume aqueous solutions of furfuryl alcohol (b-4), sotolon (c-2), and α-angelicalactone (c-3), respectively.
# The following were used as the test samples for Comparative Examples: 2% by weight per volume ethanol solutions of eicosane (carbon number 20, p-1), heneicosane (carbon number 21, p-2), 2-methyloctane (branched alkane, p-3), tributyl o-acetylcitrate (p-4), and 1-methylpyrrole (p-5), respectively; and 2% by weight per volume aqueous solutions of 2-methyltetrahydrofuran-3-one (p-6) and acetic acid (p-7), respectively.
# Ethanol alone and water alone were used as samples for correction.
# The cotton pads 13 were impregnated with 40% sugar water (80 g), after which disposable wooden chopsticks 15 (80 mm in length) were placed over the cotton pads on the lid surface as “landing areas,” for use as “test insect (honeybee) feeding station 1” 10.
# A nest box of test insects (honeybees) (1 colony: approx. 6,000 bees) was placed at the center of a glass hothouse (bottom face: 5 m×10 m, height (highest part): 3 m, temperature: 25° C.), and the aforementioned “test insect (honeybee) feeding station 1” was installed at a location 2 meters away from the nest box.
# After confirming that at least five test insects (honeybees) were feeding at the above “test insect (honeybee) feeding station 1” installed in the hothouse, test 1 was conducted to measure the “approaching count (Mz)” and “landing count (My)” and calculate the “landing rate (Mx).”
# Next, the “test insect (honeybee) feeding station 1” installed in the hothouse was replaced with each “test insect (honeybee) feeding station 2” which was let to stand still for 5 minutes, after which test 2 was conducted to measure the “approaching count (Nz)” and “landing count (Ny)” and calculate the “landing rate (Nx).”
# Approaching count: Total number of times a honeybee has approached within 25 cm of the cotton wools at the feeding station during 5 minutes
# Landing count: Total number of honeybees that have remained for at least 1 second on the cotton pads at the feeding station during 5 minutes
# Landing rate (%): (Landing count/Approaching count)×100
# The “repelling rate Q” and “corrected repelling rate R” were calculated from the above “landing rates” using the calculation formula below. For the “repelling rate of sample for correction” used to calculate the “corrected repelling rate R,” the repelling rate of each of the samples for correction above (ethanol alone or water alone being a solvent for the active ingredient) was used.
# Repelling rate Q (%)={(Mx)−(Nx)}/(Mx)×100
# Corrected repelling rate R (%)={Repelling rate of test sample−Repelling rate of sample for correction}/{100−Repelling rate of sample for correction}×100
# The following were used as the test samples for Examples: 0.1% by weight per volume ethanol solutions of 3-methyl-2-butanol (e-4), carvacrol (x-1), isoeugenol (x-2), cinnamyl alcohol (x-3), diacetone alcohol (x-4), α-amylcinnamaldehyde (x-5), 3-methyl-2-butenal (x-6), valeraldehyde (x-7), ethyl cinnamate (x-8), methyl cinnamate (x-9), ethyl isovalerate (x-10), isoamyl formate (x-11), 5-ethyl-2-methylpyridine (x-12), 2-(3-phenylpropyl)pyridine (x-13), 2,6-dimethylpyridine (x-14), ß-ionone (x-15), 2-acetylthiazole (x-16), butylamine (x-17), and citronella oil (x-18), respectively; and a 0.1% by weight per volume aqueous solution of (3-amino-3-carboxypropyl)dimethylsulfonium chloride (x-19).
row,Compound,repelling effect / repelled behaviors of honeybees (in words)
1,"CC1=CCC(=O)O1 [c-3, α-angelicalactone]",excellent repelling effect

# Same assay, conditions: Test 1; honeybees; 2% by weight per volume solution, 5 mL sprayed (active ingredient 0.1 g)
row,Compound,Corrected repelling rate R (%)
1,"CC1=CCC(=O)O1 [c-3, α-angelicalactone]",31.7

# Same assay, conditions: Test 2; honeybees; 0.1% by weight per volume solution, 5 mL (active ingredient 5 mg)
row,Compound,Corrected repelling rate R (%)
1,"CC(C)C(C)O (stereo not shown) [e-4, 3-methyl-2-butanol]",17.7
2,"Cc1ccc(C(C)C)cc1O [x-1, carvacrol]",80.6
3,"OCC=Cc1ccccc1 [x-3, cinnamyl alcohol]",98.2
4,"CC(C)=CC=O [x-6, 3-methyl-2-butenal]",91.8
5,"CCCCC=O [x-7, valeraldehyde]",50.7
6,"CCOC(=O)C=Cc1ccccc1 [x-8, ethyl cinnamate]",21.8
7,"COC(=O)C=Cc1ccccc1 [x-9, methyl cinnamate]",93.3
8,"CCOC(=O)CC(C)C [x-10, ethyl isovalerate]",61.0
9,"CC(C)CCOC=O [x-11, isoamyl formate]",15.1
10,"CCc1ccc(C)nc1 [x-12, 5-ethyl-2-methylpyridine]",72.4
11,"c1ccc(CCCc2ccccn2)cc1 [x-13, 2-(3-phenylpropyl)pyridine]",86.4
12,"Cc1cccc(C)n1 [x-14, 2,6-dimethylpyridine]",50.0
13,"CC(=O)/C=C/C1=C(C)CCCC1(C)C [x-15, ß-ionone]",83.7
14,"CCCCN [x-17, butylamine]",83.4
15,"C[S+](C)CCC(N)C(=O)O.[Cl-] (stereo not shown) [x-19, (3-amino-3-carboxypropyl)dimethylsulfonium chloride]",40.9

# Same assay, conditions: Test 3, summary in text
row,Compound,honeybee repelling rate [%]
1,"O=CC=Cc1ccccc1 [y-5, cinnamaldehyde]",≥ 50

# Same assay, conditions: Test 3; 0.1% by weight per volume solution, 5 mL
row,Compound,Corrected repelling rate (%) Honeybees [%]
1,"c1coc(Cn2cccc2)c1 [d-3, 1-furfurylpyrrole]",25.4
2,"CCCCCO [e-7, 1-pentanol]",68.9
3,"CC(C)=CCO [e-8, 3-methyl-2-buten-1-ol]",30.4
4,"CC1(C)C2CCC1(C)C(O)C2 (stereo not shown) [y-1, borneol]",80.0
5,"COc1ccc(C=O)cc1 [y-4, anisaldehyde]",91.5
6,"O=CC=Cc1ccccc1 [y-5, cinnamaldehyde]",94.4
7,"CCOc1cc(C=O)ccc1O [y-6, ethyl vanillin]",60.3
8,"COc1cc(C=O)ccc1O [y-7, vanillin]",61.2
9,"C=C(C)C1CC=C(C=O)CC1 (stereo not shown) [y-8, perillaldehyde]",94.7
10,"CC/C=C/C=O [y-10, trans-2-pentenal]",55.4
11,"CC(C)CC=O [y-14, isovaleraldehyde]",65.5
12,"CCOC(=O)c1ccc(O)cc1 [y-17, ethyl 4-hydroxybenzoate]",56.6
13,"CC(=O)OCC=Cc1ccccc1 [y-18, cinnamyl acetate]",69.0
14,"CC(=O)OCCc1ccccc1 [y-20, phenethyl acetate]",58.9
15,"CCCCC(CC)COC(=O)c1ccccc1O (stereo not shown) [y-22, 2-ethylhexyl salicylate]",23.7
16,"CC(=O)OC/C=C(\C)CCC=C(C)C [y-27, geranyl acetate]",68.0

# System: stink bugs
# Experiment: Test for Confirmation of Stink Bug Behaviors against Active Ingredients 1, 2, 3 (treated filter paper)
# Type: in vivo, southern green stink bugs
# Details: not given
# Description: The test samples in “Test for Confirmation of Honeybee Repelling Effect 1” above were used.
# A liquid calcium carbonate/ethanol dispersion was applied on the entire interior wall of a KP cup (100 mm in diameter×90 mm in height) and air-dried, after which a filter paper (90 mm in diameter) was fixed on the bottom face of the KP cup using double-sided tape. A different filter paper (90 mm in diameter) was cut along its diameter and the resulting semicircle-shaped paper was uniformly treated with 400 μL of each test sample or sample for correction, and then placed over the filter paper fixed on the aforementioned bottom face of the KP cup by allowing the circular parts to overlap, for use as a testing device.
# The “repelling rate Y” and “corrected repelling rate Z” were calculated from the above “time A (sec)” and “time B (sec)” using the calculation formula below. For the “repelling rate of sample for correction” used to calculate the “corrected repelling rate Z,” the repelling rate of each of the samples for correction above (ethanol alone or water alone being a solvent for the active ingredient) was used.
# Corrected repelling rate Z (%)={Repelling rate of test sample−Repelling rate of sample for correction}/{100−Repelling rate of sample for correction}×100
# For the test samples, the test samples in “Test for Confirmation of Honeybee Repelling Effect 2” above were used.
row,Compound,repelling of stink bugs and other injurious insects to be exterminated (in words)
1,"CCCCCO [e-7, 1-pentanol]",not repelling stink bugs
2,"CC1(C)C2CCC1(C)C(O)C2 (stereo not shown) [y-1, borneol]",not repelling stink bugs
3,"O=CC=Cc1ccccc1 [y-5, cinnamaldehyde]",not repelling stink bugs
4,"COc1cc(C=O)ccc1O [y-7, vanillin]",not repelling stink bugs
5,"CC/C=C/C=O [y-10, trans-2-pentenal]",not repelling stink bugs
6,"CC(C)CC=O [y-14, isovaleraldehyde]",not repelling stink bugs
7,"CCOC(=O)c1ccc(O)cc1 [y-17, ethyl 4-hydroxybenzoate]",not repelling stink bugs
8,"CC(=O)OCC=Cc1ccccc1 [y-18, cinnamyl acetate]",not repelling stink bugs
9,"CC(=O)OCCc1ccccc1 [y-20, phenethyl acetate]",not repelling stink bugs
10,"CC(=O)OC/C=C(\C)CCC=C(C)C [y-27, geranyl acetate]",not repelling stink bugs

# Same assay, conditions: 0.5 h, 0.1 % strength
row,Compound,Corrected repelling rate (%) Stinkbugs
1,"COc1ccc(C=O)cc1 [y-4, anisaldehyde]",x (“x” for rates “not <0”)
2,"CCOc1cc(C=O)ccc1O [y-6, ethyl vanillin]",x (“x” for rates “not <0”)
3,"C=C(C)C1CC=C(C=O)CC1 (stereo not shown) [y-8, perillaldehyde]",x (“x” for rates “not <0”)

# Same assay, conditions: Test 1; 2% by weight per volume solution, 400 μL on filter paper, 30 minutes
row,Compound,Corrected repelling rate (%) Stinkbugs [%]
1,"CC1=CCC(=O)O1 [c-3, α-angelicalactone]",<0

# Same assay, conditions: Test 2; 0.1% by weight per volume solution, 400 μL
row,Compound,Corrected repelling rate (%) Stinkbugs [%]
1,"CC(C)C(C)O (stereo not shown) [e-4, 3-methyl-2-butanol]",<0
2,"Cc1ccc(C(C)C)cc1O [x-1, carvacrol]",<0
3,"OCC=Cc1ccccc1 [x-3, cinnamyl alcohol]",<0
4,"CC(C)=CC=O [x-6, 3-methyl-2-butenal]",<0
5,"CCCCC=O [x-7, valeraldehyde]",<0
6,"CCOC(=O)C=Cc1ccccc1 [x-8, ethyl cinnamate]",<0
7,"COC(=O)C=Cc1ccccc1 [x-9, methyl cinnamate]",<0
8,"CCOC(=O)CC(C)C [x-10, ethyl isovalerate]",<0
9,"CC(C)CCOC=O [x-11, isoamyl formate]",<0
10,"CCc1ccc(C)nc1 [x-12, 5-ethyl-2-methylpyridine]",<0
11,"c1ccc(CCCc2ccccn2)cc1 [x-13, 2-(3-phenylpropyl)pyridine]",<0
12,"Cc1cccc(C)n1 [x-14, 2,6-dimethylpyridine]",<0
13,"CC(=O)/C=C/C1=C(C)CCCC1(C)C [x-15, ß-ionone]",<0
14,"CCCCN [x-17, butylamine]",<0
15,"C[S+](C)CCC(N)C(=O)O.[Cl-] (stereo not shown) [x-19, (3-amino-3-carboxypropyl)dimethylsulfonium chloride]",<0

# Same assay, conditions: Test 3; 0.1% by weight per volume solution, 400 μL
row,Compound,Corrected repelling rate (%) Stinkbugs
1,"c1coc(Cn2cccc2)c1 [d-3, 1-furfurylpyrrole]",∘
2,"CCCCCO [e-7, 1-pentanol]",∘
3,"CC(C)=CCO [e-8, 3-methyl-2-buten-1-ol]",∘
4,"CC1(C)C2CCC1(C)C(O)C2 (stereo not shown) [y-1, borneol]",∘
5,"O=CC=Cc1ccccc1 [y-5, cinnamaldehyde]",∘
6,"COc1cc(C=O)ccc1O [y-7, vanillin]",∘
7,"CC/C=C/C=O [y-10, trans-2-pentenal]",∘
8,"CC(C)CC=O [y-14, isovaleraldehyde]",∘
9,"CCOC(=O)c1ccc(O)cc1 [y-17, ethyl 4-hydroxybenzoate]",∘
10,"CC(=O)OCC=Cc1ccccc1 [y-18, cinnamyl acetate]",∘
11,"CC(=O)OCCc1ccccc1 [y-20, phenethyl acetate]",∘
12,"CCCCC(CC)COC(=O)c1ccccc1O (stereo not shown) [y-22, 2-ethylhexyl salicylate]",∘
13,"CC(=O)OC/C=C(\C)CCC=C(C)C [y-27, geranyl acetate]",∘
